Literature values in EP2594258B1, “Oral gel comprising praziquantel” (Veterinärmedizinische Universität Wien, priority 2011, dated 2013).

| SMILES | intoxication following treatment (alpacas) | solubility in chloroform (chloroform) | solubility in dimethylsulfoxide (dimethylsulfoxide) | solubility in ethanol (ethanol) | solubility in water (water) |
| --- | --- | --- | --- | --- | --- |
| CCCSc1ccc2nc(NC(=O)OC)[nH]c2c1 [albendazole] | Lethal intoxications |  |  |  |  |
| O=C(C1CCCCC1)N1CC(=O)N2CCc3ccccc3C2C1 (racemic) [Praziquantel, (RS)-2-Cyclohexylcarbonyl-2,3,4,6,7,11b-hexahydro-1H-pyrazino(2,1-a) isoquinolin-4-on] |  | easily soluble | easily soluble | soluble | up to 400 mg/L |
